Substitutions are numbered along the chain they refer to. Where “and” joins values, the source holds several entries; their conditions need not be identical. Identical values can stand only once.
How the values were obtained:
[1] = target: T1, PfCRT variant D410A (Plasmodium falciparum, UniProt Q9N623, A220S/D410A/I356T/K76T/M74I/N326S/N75E/Q271E/R371I); test: CQ uptake assay, oocytes expressing D410A; type: cell-based
T1 sequence (Q9N623 1-424 M74I/N75E/K76T/A220S/Q271E/N326S/I356T/R371I/D410A): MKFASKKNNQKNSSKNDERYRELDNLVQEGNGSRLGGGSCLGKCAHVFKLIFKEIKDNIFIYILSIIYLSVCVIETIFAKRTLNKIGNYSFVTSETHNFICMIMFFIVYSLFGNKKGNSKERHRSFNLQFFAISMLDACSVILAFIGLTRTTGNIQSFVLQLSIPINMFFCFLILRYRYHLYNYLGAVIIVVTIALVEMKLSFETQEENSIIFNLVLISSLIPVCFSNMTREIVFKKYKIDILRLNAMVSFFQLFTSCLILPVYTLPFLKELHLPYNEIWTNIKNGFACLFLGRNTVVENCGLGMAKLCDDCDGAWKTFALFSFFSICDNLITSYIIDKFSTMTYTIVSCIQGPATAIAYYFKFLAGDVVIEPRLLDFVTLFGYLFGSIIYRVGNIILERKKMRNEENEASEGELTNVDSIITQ
Description: (§1) Site-directed mutagenesis of PfCRT^Dd2 was performed as described using the megaprimer method with overlap extension[21],[54]. The primer pairs used are listed in Supplementary Table 6. Please note that a codon-optimized and oocyte-adapted version of PfCRT^Dd2 was used[22] (Supplementary Fig. 16). The resulting DNA fragment was cloned into the SP64T expression vector and verified by sequencing.
(§2) Oocytes were obtained as described previously. Briefly, adult (>2 years old) female X. laevis frogs (NASCO) were anesthetized in a cooled solution of ethyl 3-amino benzoate methanesulfonate (0.1%, w/v), followed by a surgical removal of parts of the ovary. The ovary lobes were carefully dissected and small pieces of oocytes were incubated in Ca^2+-free ND96 buffer (96 mM NaCl, 2 mM KCl, 1 mM MgCl2 buffered with 5 mM HEPES/NaOH, pH 7.5) supplemented with collagenase D (0.1%, w/v; Roche), BSA (0.5%, w/v), and 9 mm Na2HPO4 at 18 °C for 14-16 h while gentle shaking. After incubation, the oocytes were carefully washed several times with ND96 buffer (96 mM NaCl, 2 mM KCl, 1.8 mM CaCl2, 1 mM MgCl2 buffered with 5 mM HEPES/NaOH, pH 7.5) supplemented with 100 mg l^−1 gentamycin). Defolliculated and healthy-looking stage V-VI oocytes were manually selected for RNA microinjection. The RNA was generated as following: The codon-optimized sequences of PfCRT variants were cloned into the pSP64T expression vector. After vector linearization using the restriction endonucleases BamHI or SalI (New England Biolabs), transcription was performed using the in vitro SP6 mMessage mMachine Kit (Ambion)[34]. The obtained RNA was kept at −80 °C and diluted with nuclease-free water to a concentration of 0.6 μg μl^−1. Precision-bore glass capillary tubes (3.5-inch glass capillaries; Drummond Scientific Co.) were pulled on a vertical puller (P-87 Flaming/Brown micropipette puller, Sutter Instrument Co.), graduated, and placed on a microinjector (Nanoject II Auto-Nanoliter Injector, Drummond Scientific Co.). 50 nl of nuclease-free water alone (control oocytes) or 50 nl of 0.6 μg μl^−1 RNA were injected under stereomicroscopic control. Injected oocytes were incubated for 46–72 h at 18 °C with twice-daily buffer changes before usage in experiments.
Drug uptake assays were performed as described previously[21],[22],[24],[34]. […] The direction of radio-labeled drug transport is here from the mostly acidic extracellular solution (pH 4.5 or 6.0, as indicated) into the oocyte cytosol (pH ∼ 7.2), which corresponds to the efflux of drug from the acidic digestive vacuole (pH 5.2) into the parasite cytoplasm (pH 7.2). The topology of PfCRT in the oolemma is such that both the N- and C-terminus face the extracellular milieu[3],[22]. In the parasite, the N- and C-terminus face the lumen of the digestive vacuole. CQ uptake kinetics were performed by incubating oocytes in ND96 buffer adjusted to a pH of 4.5, 5.0, 5.5, or 6.0 and supplemented with 50 nM [^3H]CQ and one of 7 different CQ concentrations (10 µM, 50 µM, 100 µM, 200 µM, 300 µM, 400 µM, 500 µM CQ). The reaction was stopped at the 60 min time point, which is in the linear uptake range[22],[34] (Supplementary Fig. 17). For determination of the amount of drug uptake for each oocyte, the reaction medium was removed and the oocytes were washed three times with 2 ml of ice-cold ND96 buffer. Each oocyte was individually transferred to a scintillation vial containing 5% sodium dodecyl sulfate (200 μl) for lysis. The radioactivity of each sample was measured using a liquid scintillation analyzer Tri-Carb 4910 TR (PerkinElmer). Oocytes that were injected with water instead of RNA were analyzed in parallel, representing the uptake of a drug by diffusion and/or endogenous permeation pathways. The resulting value represents the “background“ level of drug accumulation in oocytes (in-depth discussion in[22]). […]

[2] = test system: PfCRT variant D329N; test: CQ uptake assay, oocytes expressing D329N; type: cell-based, Plasmodium falciparum
Description: as §1, §2
(§3) Drug uptake assays were performed as described previously[21],[22],[24],[34]. […] The direction of radio-labeled drug transport is here from the mostly acidic extracellular solution (pH 4.5 or 6.0, as indicated) into the oocyte cytosol (pH ∼ 7.2), which corresponds to the efflux of drug from the acidic digestive vacuole (pH 5.2) into the parasite cytoplasm (pH 7.2). The topology of PfCRT in the oolemma is such that both the N- and C-terminus face the extracellular milieu[3],[22]. In the parasite, the N- and C-terminus face the lumen of the digestive vacuole. CQ uptake kinetics were performed by incubating oocytes in ND96 buffer adjusted to a pH of 4.5, 5.0, 5.5, or 6.0 and supplemented with 50 nM [^3H]CQ and one of 7 different CQ concentrations (10 µM, 50 µM, 100 µM, 200 µM, 300 µM, 400 µM, 500 µM CQ). The reaction was stopped at the 60 min time point, which is in the linear uptake range[22],[34] (Supplementary Fig. 17). […] The radioactivity of each sample was measured using a liquid scintillation analyzer Tri-Carb 4910 TR (PerkinElmer). Oocytes that were injected with water instead of RNA were analyzed in parallel, representing the uptake of a drug by diffusion and/or endogenous permeation pathways. […]

[3] = target: T2, PfCRT variant F291A (Plasmodium falciparum, UniProt Q9N623, A220S/F291A/I356T/K76T/M74I/N326S/N75E/Q271E/R371I); test: CQ uptake assay, oocytes expressing F291A; type: cell-based
T2 sequence (Q9N623 1-424 M74I/N75E/K76T/A220S/Q271E/F291A/N326S/I356T/R371I): T1 sequence (Q9N623 1-424 M74I/N75E/K76T/A220S/Q271E/N326S/I356T/R371I/D410A) with F291A, A410D
Description: as §1, §2, §3

[4] = D410A, 50 µM CQ, 1 h, mean ± SEM
[5] = pH 4.5, single replicates, Fig 1d left
[6] = pH 6.0, single replicates, Fig 1d left
[7] = D329N, 50 µM CQ, 1 h, mean ± SEM
[8] = F291A, 50 µM CQ, 1 h, mean ± SEM

CCN(CC)CCCC(C)Nc1ccnc2cc(Cl)ccc12 (stereo not shown) [CQ, chloroquine]
Activity at pH 4.5 [1, 4]: 2.38 ± 0.18 pmol h-1 oocyte-1 | Activity at pH 6.0 [1, 4]: 5.09 ± 0.24 pmol h-1 oocyte-1 | R-value ([1]; D410A, CQ transport at pH 4.5 / pH 6.0): 0.47 ± 0.06 | D410A transport activity pH 4.5 [1, 5]: 2.74 pmol oocyte-1 h-1 and 1.99 pmol oocyte-1 h-1 and 2.40 pmol oocyte-1 h-1 | D410A R-value ([1]; pH 4.5 vs pH 6.0, Fig 1d left): 0.60 and 0.35 and 0.47 | D410A transport activity pH 6.0 [1, 6]: 4.58 pmol oocyte-1 h-1 and 5.61 pmol oocyte-1 h-1 and 5.09 pmol oocyte-1 h-1 | Activity at pH 4.5 [2, 7]: 0.39 ± 0.14 pmol h-1 oocyte-1 | Activity at pH 6.0 [2, 7]: 1.25 ± 0.32 pmol h-1 oocyte-1 | R-value ([2]; D329N, CQ transport at pH 4.5 / pH 6.0): 0.32 ± 0.07 | D329N transport activity pH 4.5 [2, 5]: 0.14 pmol oocyte-1 h-1 and 0.71 pmol oocyte-1 h-1 and 0.33 pmol oocyte-1 h-1 | D329N transport activity pH 6.0 [2, 6]: 0.49 pmol oocyte-1 h-1 and 1.49 pmol oocyte-1 h-1 and 1.76 pmol oocyte-1 h-1 | Activity at pH 4.5 [3, 8]: 1.61 ± 0.31 pmol h-1 oocyte-1 | Activity at pH 6.0 [3, 8]: 3.23 ± 0.24 pmol h-1 oocyte-1 | R-value ([3]; F291A, CQ transport at pH 4.5 / pH 6.0): 0.52 ± 0.11 | F291A transport activity pH 4.5 [3, 5]: 1.94 pmol oocyte-1 h-1 and 2.47 pmol oocyte-1 h-1 and 0.96 pmol oocyte-1 h-1 and 1.07 pmol oocyte-1 h-1 | F291A transport activity pH 6.0 [3, 6]: 2.78 pmol oocyte-1 h-1 and 3.29 pmol oocyte-1 h-1 and 4.00 pmol oocyte-1 h-1 and 2.84 pmol oocyte-1 h-1

— PMC10349806 (Nature Communications, 2023)
